From PMC7317179 (The Korean Journal of Physiology & Pharmacology : …, 2020)

Target: T1, anoctamin-1 (hANO1, TMEM16A) (Homo sapiens, UniProt Q5XXA6)
T1 sequence (Q5XXA6 1-986): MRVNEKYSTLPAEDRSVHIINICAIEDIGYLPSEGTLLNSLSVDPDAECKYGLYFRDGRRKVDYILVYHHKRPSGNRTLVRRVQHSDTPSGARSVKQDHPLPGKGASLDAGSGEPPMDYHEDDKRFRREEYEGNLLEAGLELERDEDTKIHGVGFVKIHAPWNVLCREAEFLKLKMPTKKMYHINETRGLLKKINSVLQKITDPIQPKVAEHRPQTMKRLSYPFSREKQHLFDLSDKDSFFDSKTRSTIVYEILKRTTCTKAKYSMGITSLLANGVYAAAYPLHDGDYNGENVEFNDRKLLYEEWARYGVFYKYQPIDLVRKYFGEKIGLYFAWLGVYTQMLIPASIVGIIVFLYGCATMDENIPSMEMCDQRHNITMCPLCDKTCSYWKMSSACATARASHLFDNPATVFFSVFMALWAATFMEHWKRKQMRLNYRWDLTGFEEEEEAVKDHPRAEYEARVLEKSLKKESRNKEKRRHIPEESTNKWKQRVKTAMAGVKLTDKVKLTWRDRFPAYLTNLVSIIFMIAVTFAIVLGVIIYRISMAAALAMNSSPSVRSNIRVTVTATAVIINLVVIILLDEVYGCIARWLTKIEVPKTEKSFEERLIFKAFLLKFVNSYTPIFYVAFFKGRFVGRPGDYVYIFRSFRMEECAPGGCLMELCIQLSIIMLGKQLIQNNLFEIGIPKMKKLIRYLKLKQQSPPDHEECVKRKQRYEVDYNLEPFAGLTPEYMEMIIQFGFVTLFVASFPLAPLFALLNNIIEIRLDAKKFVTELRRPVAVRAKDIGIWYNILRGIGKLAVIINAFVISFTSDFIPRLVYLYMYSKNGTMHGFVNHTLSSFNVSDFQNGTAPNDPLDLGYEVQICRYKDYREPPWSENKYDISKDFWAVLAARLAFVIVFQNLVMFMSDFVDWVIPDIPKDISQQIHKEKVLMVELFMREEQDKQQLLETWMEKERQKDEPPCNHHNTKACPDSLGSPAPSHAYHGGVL
Test: whole-cell patch clamp, hANO1-HEK293T
Assay type: cell-based

`O=c1cc(-c2ccc(O)c(O)c2)oc2cc(O)cc(O)c12` [compound 5, luteolin] was tested, and the IC50 was 27.9 ± 1.61 µM.
